Here are results for 6 molecules from patent EP4778921A1, “SALT FORM AND CRYSTAL FORM OF NITROGEN-CONTAINING HETEROCYCLIC DERIVATIVE INHIBITOR, AND PREPARATION METHOD THEREFOR AND USE THEREOF” (Shanghai Hansoh Biomedical Co., Ltd., priority 2023, dated 2025).

Data set [1] deals with Ba/F3 EGFR Del19/C797S. As to the kind of experiment: Cell proliferation inhibition experiment (Cell Titer-Glo). It counts as cell-based. Particulars: Mus musculus, 72 hours, read-out: Ba/F3 EGFR Dell9/C797S IC50. Here is the method: (§1) Experimental objective: The objective of this test example is to test the inhibitory activity of compounds on the proliferation of different EGFR C797S drug-resistant mutant cell lines Ba/F3 EGFR Del19/T790M/C797S, Ba/F3 EGFR L858R/T790M/C797S, and Ba/F3 EGFR Del19/C797S. Experimental instruments: Centrifuge (Eppendorf 5810R); Microplate reader (BioTek Synergy H1) Pipette (Eppendorf or Rainin); Carbon dioxide incubator (Thermo 311) Cell counter (Life Countess II) Experimental reagents and consumables: • Ba/F3 EGFR Del19/T790M/C797S cells were purchased from KYinno Biotechnology Co., Ltd.; • Ba/F3 EGFR Del19/C797S cells were purchased from CoBioer Biosciences Co., Ltd.; • Ba/F3 EGFR L858R/T790M/C797S cells were purchased from CoBioer Biosciences Co., Ltd.; • Cell Titer-Glo was purchased from Promega, with a catalogue number of G7573; • RPMI 1640 was purchased from Gibco, with a catalogue number of 22400089; • FBS was purchased from Gibco, with a catalogue number of 10091148; • cell culture plates were purchased from Corning, with a catalogue number of 3610. Experimental methods: The inhibitory activity of the compound on the proliferation of different EGFR C797S drug-resistant mutant cell lines was detected using the Cell Titer-Glo method. The different cell lines were cultured in RPMI 1640 complete culture medium containing 10% FBS under conditions of 37°C and 5% CO2, the cells were collected by centrifugation when growing to a certain density, and adjusted to appropriate cell density after counting, the cells were spread on a white 96-well plate at 90 µL/well, and cultured in a 37°C, 5% CO2 incubator overnight, prepared compound solutions at different concentrations were added at 10 µL/well, corresponding solvent controls were set, and all wells were cultured in a 37°C, 5% CO2 incubator for 72 hours, 50 µL of CellTiter-Glo solution was added to each well, shook and mixed evenly, and incubated in the dark for 10 minutes, and a BioTek Synergy H1 microplate reader was used for reading. Experimental data processing method: The luminescence signal value was used to calculate the inhibition rate. Graphpad Prism software was used to fit the concentration and inhibition rate to a nonlinear regression curve, so as to obtain the IC50 value, as shown in the Table below for details.

Data set [2] has as its system Ba/F3 EGFR Del19/T790M/C797S. The data set is described as above. It counts as cell-based. Conditions: Mus musculus, 72 hours, read-out: Ba/F3 EGFR Del19_T790M_C797S IC50. The procedure:
as §1

Data set [3] deals with Ba/F3 EGFR L858R/T790M/C797S. Described as above. In kind it is cell-based. Particulars: Mus musculus, 72 hours, read-out: Ba/F3 EGFR L858R_T790M_C797S IC50. Here is the method:
as §1

A short description of data set [4]: Rat pharmacokinetic evaluation test. It counts as in vivo. Conditions: male, po, SD rats, plasma, p.o. 5 mg/kg. The procedure:
1. Study objective: SD rats were used as test animals to study the pharmacokinetic behaviour of the compounds of the present invention in rats (plasma) after oral administration at a dose of 5 mg/kg. 2. Experimental scheme: 2.1 Experimental drugs: The example compounds of the present invention, made in house. 2.2 Experimental animals: 3 SD rats/group, male, from Shanghai Jiesijie Experimental Animal Co., Ltd., animal production license number (SCXK (Shanghai) 2013-0006 N0.311620400001794). 2.3 Preparation formulation: • Formulation of drug for oral administration: 20% solutol HS15 in 0.5% MC (methylcellulose) • 20 g of a Solutol HS15 solid and 0.5 g of a MC solid powder were weighed and dissolved in 80 mL of purified water, and the mixture was vortexed, mixed until uniform, and subjected to ultrasound treatment to obtain a clear solution of 20% solutol HS15 in 0.5% MC. The example compound was weighed into a 20 mL glass vial, the solution was added thereto and the mixture was subjected to ultrasound treatment for 10 minutes to obtain a clear solution at a concentration of 0.5 mg/mL. 2.4 Administration: 3 male SD rats were administered p.o. respectively after the rats were fasted overnight; and the p.o. dose was 5 mg/kg and the administration volume was 10 mL/kg. 2.5 Sample collection: Blood collection: Before and after administration to rats, 0.2 mL of blood was collected from the jugular vein at 0.25, 0.5, 1, 2, 4, 6, 8 and 24 h, and placed in an EDTA-K2 anticoagulation tube, which was centrifuged at 6000 rpm at 4°C for 6 min to separate plasma which was stored at -80°C; and the animals were fed 4 h after administration. 2.6 Sample treatment: • 1) Acetonitrile (160 µL) was added to plasma sample (40 µL) for precipitation, and the mixture was centrifuged at 3500 × g for 5-20 min. • 2) The treated supernatant solution was taken and subjected to LC/MS/MS to analyse the concentrations of the test compound. LC/MS/MS analysis instrument: AB Sciex API 4000 Qtrap. 2.7 Liquid phase analysis: • Liquid phase conditions: Shimadzu LC-20AD pump • Chromatographic column: Agilent ZORBAX XDB-C18 (50 × 2.1 mm, 3.5 µm), mobile phase: solution A: 0.1% formic acid in water, solution B: acetonitrile • Flow rate: 0.4 mL/min • Elution time: 0-4.0 min, with eluents as follows:
3. Experimental results and analysis: The main pharmacokinetic parameters were calculated using WinNonlin 6.1.

The nature of data set [5]: Hygroscopicity experiment (crystal forms of salts and crystal form A of free base). It counts as physicochemical. From the text: • 2.1 Experimental objective: The hygroscopicity of different crystal forms of salts of the compound was investigated under various relative humidity conditions to provide a basis for screening and storage of the crystal forms of salts of the compound. • 2.2 Experimental scheme: The crystal forms of salts of the compound were placed in saturated water vapor at different relative humidities to reach a dynamic equilibrium between the compound and the water vapor.
3.1 Experimental objective: The hygroscopicity of crystal form A of free base of the compound was investigated under various relative humidity conditions to provide a basis for screening and storage of the crystal forms of the compound.
3.2 Experimental scheme: The crystal form A of free base of the compound was placed in saturated water vapor at different relative humidities to reach a dynamic equilibrium between the compound and the water vapor. The percentage weight gain of the compound due to moisture absorption was calculated after the equilibrium.

Data set [6] in a line: Solubility experiments in different media, crystal forms of salts. It counts as physicochemical. On the set-up: thermodynamic solubility FaSSIF / thermodynamic solubility FaSSGF / thermodynamic solubility FeSSIF: unit not given here. Conditions: about 2 mg suspended for 24 hours, 37°C, HPLC, external standard method. From the text:
4.1 Experimental objective: The solubility of the crystal form A of phosphate, crystal form A of hydrochloride, crystal form A of sulphate, crystal form A of citrate, crystal form A of oxalate, crystal form A of maleate and crystal form A of salicylate in media such as artificial simulated gastric fluid (FaSSGF), fasted-state artificial simulated intestinal fluid (FaSSIF), and fed-state artificial simulated intestinal fluid (FeSSIF) was compared to provide a basis for the evaluation of the potential of the crystal forms of salts being manufactured as a drug. […]

The nature of data set [7]: Solid stability experiment of crystal form A of phosphate (5, 10, 20 and 30 days). In kind it is physicochemical. Conditions: 60°C (GW, sealed), 50°C/75% RH (JS, unsealed), room temperature/92.5% RH (GS, unsealed). The procedure:
• 5.1 Experimental objective: To investigate and compare the stability of the crystal form A of phosphate under the three conditions of a high temperature of 60°C (GW, sealed), 50°C/75% RH (JS, unsealed), and room temperature/92.5% RH (GS, unsealed) and provide a basis for the screening of the crystal forms of salts and the storage of the salts of the compound. • 5.2 Experimental scheme: About 2 mg of crystal form A of phosphate was weighed into 2 mL dry and clean glass vials, respectively. The vials were respectively placed under the conditions of 60°C (GW, sealed), 50°C/75% RH (JS, unsealed), and room temperature/92.5% RH (GS, unsealed) for 5, 10, 20 and 30 days. […] Therefore, the crystal form can well meet the requirements of subsequent long-term storage and formulation processes.

Take `CC(C)c1c(F)cc(N2C[C@H](CS(C)(=O)=O)[C@H]2C)c2cnc(Nc3ccnc(-c4cn(C)nc4Cl)n3)cc12` [Example 1, N-(2-(3-chloro-1-methyl-1H-pyrazol-4-yl)pyrimidin-4-yl)-6-fluoro-5-isopropyl-8-((2R,3S)-2-methyl-3-((methanesulphonyl)methyl)azetidin-1-yl)isoquinolin-3-amine]: the IC50 in data set [1] worked out at 11 nM. Also, the IC50 in data set [2] was found to be 7.1 nM. The IC50 in data set [3] amounted to 14 nM. In data set [4], this molecule gave an AUC(0-t) of 2100 ng·h/mL, a Cmax of 178 ng/mL and a half-life of 2.3 h.
As for `CC(C)c1c(F)cc(N2C[C@H](N(C)S(C)(=O)=O)[C@H]2C)c2cnc(Nc3ccnc(-c4cn(C)nc4Cl)n3)cc12` [Example 2, N-((2R,3S)-1-(3-((2-(3-chloro-1-methyl-1H-pyrazol-4-yl)pyrimidin-4-yl)amino)-6-fluoro-5-isopropylisoquinolin-8-yl)-2-methylazetidin-3-yl)-N-methylmethanesulphonamide], the IC50 was determined as 6.2 nM in data set [1], 4.5 nM in data set [2] and 15 nM in data set [3]. The AUC(0-t) in data set [4] was 1770 ng·h/mL. In data set [4], the Cmax worked out at 142 ng/mL. In data set [4], the half-life was 3.9 h.
With `Cc1nn(C)cc1-c1nccc(Nc2cc3c(C(C)C)c(F)cc(N4C[C@H](CS(C)(=O)=O)[C@H]4C)c3cn2)n1` [Example 4, N-(2-(1,3-dimethyl-1H-pyrazol-4-yl)pyrimidin-4-yl)-6-fluoro-5-isopropyl-8-((2R,3S)-2-methyl-3-((methanesulphonyl)methyl)azetidin-1-yl)isoquinolin-3-amine], the IC50 was found to be 18 nM in data set [1] and 6.8 nM in data set [2].
Turning to `Cc1nn(C)cc1-c1nccc(Nc2cc3c(C(C)C)c(F)cc(N4C[C@H](N(C)S(C)(=O)=O)[C@H]4C)c3cn2)n1` [Example 5, N-((2R,3S)-1-(3-((2-(1,3-dimethyl-1H-pyrazol-4-yl)pyrimidin-4-yl)amino)-6-fluoro-5-isopropylisoquinolin-8-yl)-2-methylazetidin-3-yl)-N-methylmethanesulphonamide], the IC50 in data set [1] turned out to be 7.8 nM. The IC50 in data set [2] amounted to 4.5 nM. In data set [4], this molecule showed an AUC(0-t) of 2000 ng·h/mL, a Cmax of 157 ng/mL and a half-life of 3.9 h.
Regarding `CC(C)c1c(F)cc(N2C[C@H](NS(C)(=O)=O)[C@H]2C)c2cnc(Nc3ccnc(-c4cn(C)nc4Cl)n3)cc12` [Example 14, N-((2R,3S)-1-(3-((2-(3-chloro-1-methyl-1H-pyrazol-4-yl)pyrimidin-4-yl)amino)-6-fluoro-5-isopropylisoquinolin-8-yl)-2-methylazetidin-3-yl)methanesulphonamide], the IC50 in data set [1] turned out to be 2.6 nM; in data set [3] it was 8.8 nM.
Consider `CC(C)c1c(F)cc(N2C[C@H](N(C)S(C)(=O)=O)[C@H]2C)c2cnc(Nc3ccnc(-c4cn(C)nc4Cl)n3)cc12` [crystal form A of phosphate, N-((2R,3S)-1-(3-((2-(3-chloro-1-methyl-1H-pyrazol-4-yl)pyrimidin-4-yl)amino)-6-fluoro-5-isopropylisoquinolin-8-yl)-2-methylazetidin-3-yl)-N-methylmethanesulphonamide], for which the “weight gain after moisture absorption” value in data set [5] (RH 80%) is listed as 0.533%. In addition, the hygroscopicity result in data set [5] (RH 80%, result in words) is “weak hygroscopicity”. In addition, the “crystal form transformation (XRPD pattern)” value in data set [5] (after 1 cycle of moisture absorption and desorption, 0-95% relative humidity) is recorded as “no crystal form transformation occurred”. In addition, in data set [6] (FaSSGF (artificial simulated gastric fluid)), the “thermodynamic solubility FaSSGF” value is given as 0.010. Further, the “thermodynamic solubility FaSSIF” value in data set [6] (FaSSIF (fasted-state artificial simulated intestinal fluid)) is 0.203. Further, the thermodynamic solubility at 24 h in data set [6] (thermodynamic from solid, FeSSIF (fed-state artificial simulated intestinal fluid)) is 1200 µg/mL. In data set [7], the “stability (impurity increase)” value is reported as “relatively stable”.
